{"source": "paper PMC5218480", "about": "(PLoS ONE, 2017)", "system": "MV-4-11 cells", "test": "Gene expression microarray analysis (Affymetrix PrimeView) and GSEA", "assay_type": "cell-based, human", "parameters": "RFU PODN (11730768_x_at) / Fold change /veh PODN (11730768_x_at) / RFU LINC00158 (11744669_a_at) / Fold change /veh LINC00158 (11744669_a_at) / RFU DUSP10 (11751237_a_at) / Fold change /veh DUSP10 (11751237_a_at) / RFU ID3 (11757404_x_at) / Fold change /veh ID3 (11757404_x_at) / RFU PLEKHG5 (11737974_s_at) / Fold change /veh PLEKHG5 (11737974_s_at) / RFU LRRC4B (11730491_at) / Fold change /veh LRRC4B (11730491_at) / RFU GIMAP4 (11747438_a_at) / Fold change /veh GIMAP4 (11747438_a_at) / RFU KRT8 (11758183_x_at) / Fold change /veh KRT8 (11758183_x_at) / RFU CNN1 (11734310_a_at) / Fold change /veh CNN1 (11734310_a_at) / RFU VPS37D (11726825_at) / Fold change /veh VPS37D (11726825_at) / RFU C10orf10 (11716522_x_at) / Fold change /veh C10orf10 (11716522_x_at) / RFU KIR2DL2 /// KIR2DL4 /// KIR2DL5A /// KIR2DL5B /// KIR2DS1 /// KIR2DS2 /// KIR2DS3 /// KIR2DS4 /// KIR3DL3 /// KIR3DL3 /// KIR3DS1 (11738374_at) / Fold change /veh KIR2DL2 /// KIR2DL4 /// KIR2DL5A /// KIR2DL5B /// KIR2DS1 /// KIR2DS2 /// KIR2DS3 /// KIR2DS4 /// KIR3DL3 /// KIR3DL3 /// KIR3DS1 (11738374_at) / RFU C1QL1 (11718748_at) / Fold change /veh C1QL1 (11718748_at) / RFU TMPRSS4 (11747572_a_at) / Fold change /veh TMPRSS4 (11747572_a_at) / RFU HAMP (11756126_x_at) / Fold change /veh HAMP (11756126_x_at) / RFU RNFT2 (11725882_a_at) / Fold change /veh RNFT2 (11725882_a_at) / RFU NR4A2 (11747474_a_at) / Fold change /veh NR4A2 (11747474_a_at) / RFU ABCC12 (11746883_a_at) / Fold change /veh ABCC12 (11746883_a_at) / RFU TMEM136 (11760407_x_at) / Fold change /veh TMEM136 (11760407_x_at) / RFU CLDN22 /// WWC2 (11732394_at) / Fold change /veh CLDN22 /// WWC2 (11732394_at) / RFU HLA-DPB1 (11760878_x_at) / Fold change /veh HLA-DPB1 (11760878_x_at) / RFU SPINT1 (11716480_a_at) / Fold change /veh SPINT1 (11716480_a_at) / RFU GAP43 (11754022_s_at) / Fold change /veh GAP43 (11754022_s_at) / RFU A4GNT (11735810_at) / Fold change /veh A4GNT (11735810_at) / RFU PRB3 (11715151_x_at) / Fold change /veh PRB3 (11715151_x_at) / RFU TUBB4B (11761932_at) / Fold change /veh TUBB4B (11761932_at) / RFU CAPN14 (11732068_a_at) / Fold change /veh CAPN14 (11732068_a_at) / RFU TMCC2 (11721928_a_at) / Fold change /veh TMCC2 (11721928_a_at) / RFU IRGQ (11745062_a_at) / Fold change /veh IRGQ (11745062_a_at) / RFU FAM174B (11720279_a_at) / Fold change /veh FAM174B (11720279_a_at) / RFU TMPRSS4 (11748680_a_at) / Fold change /veh TMPRSS4 (11748680_a_at) / RFU FAM212B (11763350_a_at) / Fold change /veh FAM212B (11763350_a_at) / RFU PLEKHG5 (11743358_a_at) / Fold change /veh PLEKHG5 (11743358_a_at) / RFU ZSCAN30 (11745921_a_at) / Fold change /veh ZSCAN30 (11745921_a_at) / RFU CMKLR1 (11741424_a_at) / Fold change /veh CMKLR1 (11741424_a_at) / RFU LOC101060620 /// MAPK8IP1 (11723275_at) / Fold change /veh LOC101060620 /// MAPK8IP1 (11723275_at) / RFU SPTSSB (11747773_x_at) / Fold change /veh SPTSSB (11747773_x_at) / RFU PRSS12 (11739890_at) / Fold change /veh PRSS12 (11739890_at) / RFU BIN1 (11741810_x_at) / Fold change /veh BIN1 (11741810_x_at) / RFU WNT11 (11732464_a_at) / Fold change /veh WNT11 (11732464_a_at) / RFU C10orf10 (11716521_a_at) / Fold change /veh C10orf10 (11716521_a_at) / RFU C5orf56 (11738089_at) / Fold change /veh C5orf56 (11738089_at) / RFU CYB561 (11721691_x_at) / Fold change /veh CYB561 (11721691_x_at) / RFU ANKRD19P (11752326_a_at) / Fold change /veh ANKRD19P (11752326_a_at) / RFU OR2T12 /// OR2T33 /// OR2T8 (11738714_s_at) / Fold change /veh OR2T12 /// OR2T33 /// OR2T8 (11738714_s_at) / RFU VCAN (11748164_a_at) / Fold change /veh VCAN (11748164_a_at) / RFU JSRP1 (11732532_at) / Fold change /veh JSRP1 (11732532_at) / RFU KRTAP10-11 (11738290_x_at) / Fold change /veh KRTAP10-11 (11738290_x_at) / RFU MYO3A (11730013_a_at) / Fold change /veh MYO3A (11730013_a_at) / RFU EBF3 (11725865_a_at) / Fold change /veh EBF3 (11725865_a_at) / RFU CAMK2N1 (11719241_x_at) / Fold change /veh CAMK2N1 (11719241_x_at) / RFU C5orf56 (11738088_a_at) / Fold change /veh C5orf56 (11738088_a_at) / RFU OLFML3 (11715873_a_at) / Fold change /veh OLFML3 (11715873_a_at) / RFU LOC100653217 /// NTM (11731650_a_at) / Fold change /veh LOC100653217 /// NTM (11731650_a_at) / RFU MAPK11 (11762145_a_at) / Fold change /veh MAPK11 (11762145_a_at) / RFU FIZ1 (11724087_x_at) / Fold change /veh FIZ1 (11724087_x_at) / RFU OASL (11726364_x_at) / Fold change /veh OASL (11726364_x_at) / RFU SOX15 (11748057_x_at) / Fold change /veh SOX15 (11748057_x_at) / RFU CD79A (11719716_a_at) / Fold change /veh CD79A (11719716_a_at) / RFU HIST1H1D (11736915_at) / Fold change /veh HIST1H1D (11736915_at) / RFU CASKIN2 (11723855_a_at) / Fold change /veh CASKIN2 (11723855_a_at) / RFU LOC730098 (11760151_x_at) / Fold change /veh LOC730098 (11760151_x_at) / RFU OR4N2 (11742367_at) / Fold change /veh OR4N2 (11742367_at) / RFU PRRT2 (11749266_a_at) / Fold change /veh PRRT2 (11749266_a_at) / RFU SNX32 (11753110_a_at) / Fold change /veh SNX32 (11753110_a_at) / RFU CDHR5 (11726645_a_at) / Fold change /veh CDHR5 (11726645_a_at) / RFU RCAN1 (11760418_a_at) / Fold change /veh RCAN1 (11760418_a_at) / RFU FAM167A (11723789_a_at) / Fold change /veh FAM167A (11723789_a_at) / RFU FAM26E (11764081_at) / Fold change /veh FAM26E (11764081_at) / RFU ISYNA1 (11749810_s_at) / Fold change /veh ISYNA1 (11749810_s_at) / RFU ACY1 (11761880_at) / Fold change /veh ACY1 (11761880_at) / RFU 11764098_at / Fold change /veh 11764098_at / RFU SAMD14 (11745864_x_at) / Fold change /veh SAMD14 (11745864_x_at) / RFU NPB (11741838_a_at) / Fold change /veh NPB (11741838_a_at) / RFU TMPRSS6 (11731388_a_at) / Fold change /veh TMPRSS6 (11731388_a_at) / RFU KRTAP10-2 (11738614_at) / Fold change /veh KRTAP10-2 (11738614_at) / RFU ARHGAP8 /// PRR5-ARHGAP8 (11727945_x_at) / Fold change /veh ARHGAP8 /// PRR5-ARHGAP8 (11727945_x_at) / RFU KRTAP5-7 /// NADSYN1 (11734609_at) / Fold change /veh KRTAP5-7 /// NADSYN1 (11734609_at) / RFU RASL12 (11751679_a_at) / Fold change /veh RASL12 (11751679_a_at) / RFU CDKN2B (11736163_a_at) / Fold change /veh CDKN2B (11736163_a_at) / RFU PRF1 (11729649_at) / Fold change /veh PRF1 (11729649_at) / RFU, ZNF638 /// ZNF638-IT1 / Fold change vs veh, ZNF638 /// ZNF638-IT1 / RFU, PANK3 / Fold change vs veh, PANK3 / RFU, SH3YL1 / Fold change vs veh, SH3YL1 / RFU, ZEB2 / Fold change vs veh, ZEB2 / RFU, NRIP1 / Fold change vs veh, NRIP1 / RFU, PTTG1IP / Fold change vs veh, PTTG1IP / RFU, CAPN2 / Fold change vs veh, CAPN2 / RFU, MED14 / Fold change vs veh, MED14 / RFU, SNORA58 / Fold change vs veh, SNORA58 / RFU, C1orf63 / Fold change vs veh, C1orf63 / RFU, LRRFIP1 / Fold change vs veh, LRRFIP1 / RFU, NDUFAF7 / Fold change vs veh, NDUFAF7 / RFU, SLC12A2 / Fold change vs veh, SLC12A2 / RFU, IBTK / Fold change vs veh, IBTK / RFU, ESF1 / Fold change vs veh, ESF1 / Fold change vs veh, TMEM50B / RFU, TAOK1 / Fold change vs veh, TAOK1 / RFU, ACBD3 / Fold change vs veh, ACBD3 / RFU, TMA16 / Fold change vs veh, TMA16 / RFU, RWDD3 / Fold change vs veh, RWDD3 / RFU, BCAT1 / Fold change vs veh, BCAT1 / RFU, EDEM3 / Fold change vs veh, EDEM3 / RFU, TMEM33 / Fold change vs veh, TMEM33 / RFU, WDR75 / Fold change vs veh, WDR75 / RFU, AHCTF1 / Fold change vs veh, AHCTF1 / RFU, TFRC / Fold change vs veh, TFRC / RFU, ZDHHC17 / Fold change vs veh, ZDHHC17 / RFU, NOM1 / Fold change vs veh, NOM1 / RFU, ARL8B / Fold change vs veh, ARL8B / RFU, ZBTB11 / Fold change vs veh, ZBTB11 / RFU, TAMM41 / Fold change vs veh, TAMM41 / RFU, KIAA1704 /// LOC100996395 / Fold change vs veh, KIAA1704 /// LOC100996395 / RFU, ING1 / Fold change vs veh, ING1 / RFU, TRMT61B / Fold change vs veh, TRMT61B / RFU, FUBP3 / Fold change vs veh, FUBP3 / RFU, TP53 / Fold change vs veh, TP53 / RFU, TNKS2 / Fold change vs veh, TNKS2 / RFU, ZFP14 / Fold change vs veh, ZFP14 / RFU, ACTR2 / Fold change vs veh, ACTR2 / RFU, PPP3R1 / Fold change vs veh, PPP3R1 / RFU, PIK3R1 / Fold change vs veh, PIK3R1 / RFU, HNRNPA1 / Fold change vs veh, HNRNPA1 / RFU, RNF170 / Fold change vs veh, RNF170 / RFU, ZNF28 / Fold change vs veh, ZNF28 / RFU, RNGTT / Fold change vs veh, RNGTT / RFU, OGT / Fold change vs veh, OGT / RFU, BRD1 / Fold change vs veh, BRD1 / RFU, MARS / Fold change vs veh, MARS / RFU, ZNF655 / Fold change vs veh, ZNF655 / RFU, FAHD1 / Fold change vs veh, FAHD1 / RFU, BDP1 / Fold change vs veh, BDP1 / RFU, LRRCC1 / Fold change vs veh, LRRCC1 / RFU, ARID1A / Fold change vs veh, ARID1A / RFU, ZNF146 / Fold change vs veh, ZNF146 / RFU, ZNF330 / Fold change vs veh, ZNF330 / RFU, GPN3 / Fold change vs veh, GPN3 / RFU, C9orf123 / Fold change vs veh, C9orf123 / RFU, N4BP2L2 / Fold change vs veh, N4BP2L2 / RFU, ARFIP1 / Fold change vs veh, ARFIP1 / RFU, FAM179B / Fold change vs veh, FAM179B / RFU, BCL10 / Fold change vs veh, BCL10 / RFU, UHRF1BP1L / Fold change vs veh, UHRF1BP1L / RFU, BET1 / Fold change vs veh, BET1 / RFU, CNOT2 / Fold change vs veh, CNOT2 / RFU, ZNF268 / Fold change vs veh, ZNF268 / Fold change vs veh, ZNF507 / RFU, DGCR2 / Fold change vs veh, DGCR2 / RFU, WDSUB1 / Fold change vs veh, WDSUB1 / Fold change vs veh, HSP90B1 /// MIR3652 / RFU, ADSS / Fold change vs veh, ADSS / RFU, GK / Fold change vs veh, GK / RFU, ZNF148 / Fold change vs veh, ZNF148 / RFU, TAF9 / Fold change vs veh, TAF9 / RFU, SLC1A5 / Fold change vs veh, SLC1A5 / RFU, SLMO2 / Fold change vs veh, SLMO2 / RFU, ABCC4 / Fold change vs veh, ABCC4 / RFU, LOC101060439 /// RAP1B / Fold change vs veh, LOC101060439 /// RAP1B / RFU, RFX7 / Fold change vs veh, RFX7 / RFU, GTPBP10 / Fold change vs veh, GTPBP10 / RFU, CNEP1R1 / Fold change vs veh, CNEP1R1 / RFU, BIVM-ERCC5 /// ERCC5 / Fold change vs veh, BIVM-ERCC5 /// ERCC5 / RFU, ILF3 / Fold change vs veh, ILF3 / RFU 11762660_at / Fold change /veh 11762660_at / RFU VCAN (11757783_s_at) / Fold change /veh VCAN (11757783_s_at) / RFU DDX43 (11728927_at) / Fold change /veh DDX43 (11728927_at) / RFU KRT8 (11758188_x_at) / Fold change /veh KRT8 (11758188_x_at) / RFU NKD1 (11759106_at) / Fold change /veh NKD1 (11759106_at) / RFU SRD5A1 (11742802_a_at) / Fold change /veh SRD5A1 (11742802_a_at) / RFU TPSAB1 /// TPSB2 (11721975_s_at) / Fold change /veh TPSAB1 /// TPSB2 (11721975_s_at) / RFU GSTM3 (11746129_a_at) / Fold change /veh GSTM3 (11746129_a_at) / RFU IL23R (11737362_x_at) / Fold change /veh IL23R (11737362_x_at) / RFU TMEM51 (11727254_a_at) / Fold change /veh TMEM51 (11727254_a_at) / RFU PIWIL2 (11732686_x_at) / Fold change /veh PIWIL2 (11732686_x_at) / RFU ORM1 (11744905_x_at) / Fold change /veh ORM1 (11744905_x_at) / RFU CCDC152 (11743942_at) / Fold change /veh CCDC152 (11743942_at) / RFU ECM1 (11717891_a_at) / Fold change /veh ECM1 (11717891_a_at) / RFU IL23R (11748794_a_at) / Fold change /veh IL23R (11748794_a_at) / RFU TNFAIP8L3 (11732012_x_at) / Fold change /veh TNFAIP8L3 (11732012_x_at) / RFU MBOAT4 (11741988_at) / Fold change /veh MBOAT4 (11741988_at) / RFU 11764193_at / Fold change /veh 11764193_at / RFU TMEM53 (11763286_at) / Fold change /veh TMEM53 (11763286_at) / RFU MAGEB2 (11727129_at) / Fold change /veh MAGEB2 (11727129_at) / RFU TMEM200A (11744735_a_at) / Fold change /veh TMEM200A (11744735_a_at) / RFU CCDC152 (11751479_a_at) / Fold change /veh CCDC152 (11751479_a_at) / RFU FAM211A (11726209_a_at) / Fold change /veh FAM211A (11726209_a_at) / RFU RGS16 (11746705_a_at) / Fold change /veh RGS16 (11746705_a_at) / RFU VCAN (11755009_s_at) / Fold change /veh VCAN (11755009_s_at) / RFU RHOB (11743442_s_at) / Fold change /veh RHOB (11743442_s_at) / RFU RGS16 (11720943_a_at) / Fold change /veh RGS16 (11720943_a_at) / RFU RGS16 (11720944_at) / Fold change /veh RGS16 (11720944_at) / RFU, VPS4B / Fold change vs veh, VPS4B / RFU, CREB1 / Fold change vs veh, CREB1 / RFU, DNAJC13 / Fold change vs veh, DNAJC13 / RFU, GNAQ / Fold change vs veh, GNAQ / RFU, CDK5R1 / Fold change vs veh, CDK5R1 / RFU, ZRANB3 / Fold change vs veh, ZRANB3 / RFU, CUL4A / Fold change vs veh, CUL4A / RFU, CCNY / Fold change vs veh, CCNY / RFU, UFL1 / Fold change vs veh, UFL1 / RFU, COG3 / Fold change vs veh, COG3 / RFU, DIAPH2 / Fold change vs veh, DIAPH2 / RFU, SKA2 / Fold change vs veh, SKA2 / RFU, AFF3 / Fold change vs veh, AFF3 / RFU, LMF1 / Fold change vs veh, LMF1 / RFU, IPO11 / Fold change vs veh, IPO11 / RFU, DFFB / Fold change vs veh, DFFB / RFU, FOXP1 / Fold change vs veh, FOXP1 / RFU, CARD8 / Fold change vs veh, CARD8 / RFU, STRN3 / Fold change vs veh, STRN3 / RFU, ADK / Fold change vs veh, ADK / RFU, RASSF2 / Fold change vs veh, RASSF2 / RFU, WIPF1 / Fold change vs veh, WIPF1 / RFU, LARP1B / Fold change vs veh, LARP1B / RFU, RASA1 / Fold change vs veh, RASA1 / RFU, RB1 / Fold change vs veh, RB1 / RFU, PPFIA1 / Fold change vs veh, PPFIA1 / RFU, MAT2A / Fold change vs veh, MAT2A / RFU, CCT5 / Fold change vs veh, CCT5 / RFU, WDR92 / Fold change vs veh, WDR92 / RFU, CUX1 / Fold change vs veh, CUX1 / RFU, TTC7A / Fold change vs veh, TTC7A / RFU, TMEM135 / Fold change vs veh, TMEM135 / RFU, DEPTOR / Fold change vs veh, DEPTOR / RFU, CPM / Fold change vs veh, CPM / RFU, DNAJB6 / Fold change vs veh, DNAJB6 / RFU, CACNA2D3 / Fold change vs veh, CACNA2D3 / RFU, DTX4 / Fold change vs veh, DTX4 / RFU, TFCP2 / Fold change vs veh, TFCP2 / RFU, GMCL1 /// GMCL1P1 / Fold change vs veh, GMCL1 /// GMCL1P1 / RFU, AEBP2 / Fold change vs veh, AEBP2 / RFU, SNHG1 /// SNORD22 /// SNORD25 /// SNORD26 /// SNORD27 /// SNORD28 /// SNORD29 /// SNORD31 / Fold change vs veh, SNHG1 /// SNORD22 /// SNORD25 /// SNORD26 /// SNORD27 /// SNORD28 /// SNORD29 /// SNORD31 / Fold change (Aza/veh), C12orf56 (ProbeSet 11735607_a_at) / Fold change (ACY-1035/veh), C12orf56 (ProbeSet 11735607_a_at) / Fold change (Aza/veh), FGFR1OP (ProbeSet 11751329_s_at) / Fold change (ACY-1035/veh), FGFR1OP (ProbeSet 11751329_s_at) / Fold change (Aza/veh), VPS36 (ProbeSet 11739960_a_at) / Fold change (ACY-1035/veh), VPS36 (ProbeSet 11739960_a_at) / RFU SYPL1 (11715823_x_at) / Fold change /veh SYPL1 (11715823_x_at) / RFU IGFBP7 (11715501_s_at) / Fold change /veh IGFBP7 (11715501_s_at) / RFU REEP3 (11722064_at) / Fold change /veh REEP3 (11722064_at) / RFU IGLL1 (11728026_x_at) / Fold change /veh IGLL1 (11728026_x_at): dose or concentration left out as unconfirmed", "details": "ProbeSet 11730501_a_at; LIST D", "data": [{"compound": "Nc1ncn([C@@H]2O[C@H](CO)[C@@H](O)[C@H]2O)c(=O)n1", "note": "[azacitidine]", "values": [{"measurement": "Fold change vs veh, CACNA2D3", "value": 0.63}]}]}
